Literature values, collected in patent publication US20050250838A1, “Formulation for sustained delivery” (priority 2004, published 2005).
Structures can show the parent of a compound that is named as a salt. Values belong to the compound of their own block, whether it stands above or below them.

Tests used:
[1] = at 6 weeks

solubility (at room temperature (U.S. Pat. No. 6,660,298)): up to 75 mg/ml
Structure (SMILES): Fc1ccc([C@@H]2CCNC[C@H]2COc2ccc3c(c2)OCO3)cc1 [amorphous paroxetine hydrochloride, paroxetine hydrochloride]

Structure (SMILES): CNCCC(Oc1ccc(C(F)(F)F)cc1)c1ccccc1 (stereo not drawn) [fluoxetine]
response [1]: about 50%

solubility in water (water): 6000 to 12000 µg/mL
Structure (SMILES): Fc1ccc([C@@H]2CCNC[C@H]2COc2ccc3c(c2)OCO3)cc1 [paroxetine hydrochloride hemihydrate]
